ChEMBL document CHEMBL1201862, “PubChem BioAssay data set” (2004)
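Exposure lasted 48 hours, with cells grown in 96-well plates and compounds tested at five concentrations. GI50 = concentration required for 50% inhibition of growth.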 The source made the active and inactive calls. No stated cut-off is given here; in the data, active = GI50 up to about 1.1 µM and inactive = higher.

What was measured:
Test in all cases: inhibition of tumour cell growth, NCI panel, 48 h
SNB-75 = system: SNB-75
RXF 393 = system: RXF 393
COLO 205 = system: COLO 205
K562 = system: K562
MDA-N = system: MDA-N
BT-549 = system: BT-549
RPMI-8226 = system: RPMI-8226
MDA-MB-231 = system: MDA-MB-231
KM12 = system: KM12
MOLT-4 = system: MOLT-4
SF-539 = system: SF-539
OVCAR-4 = system: OVCAR-4
NCI-H226 = system: NCI-H226
LOX IMVI = system: LOX IMVI
ACHN = system: ACHN
HT-29 = system: HT-29
SNB-19 = system: SNB-19
UO-31 = system: UO-31
HCC 2998 = system: HCC 2998
SF-268 = system: SF-268
SN12C = system: SN12C
MCF7 = system: MCF7
HOP-62 = system: HOP-62
U-251 = system: U-251
TK-10 = system: TK-10
SK-OV-3 = system: SK-OV-3
HOP-92 = system: HOP-92
IGROV-1 = system: IGROV-1
UACC-62 = system: UACC-62
MDA-MB-435 = system: MDA-MB-435
SK-MEL-5 = system: SK-MEL-5
HCT-15 = system: HCT-15
SW-620 = system: SW-620
OVCAR-3 = system: OVCAR-3
OVCAR-8 = system: OVCAR-8
NCI-H522 = system: NCI-H522
M14 = system: M14
A498 = system: A498
Malme-3M = system: Malme-3M
PC-3 = system: PC-3
SF-295 = system: SF-295
DU-145 = system: DU-145
SK-MEL-2 = system: SK-MEL-2
SK-MEL-28 = system: SK-MEL-28
786-0 = system: 786-0
Hs-578T = system: Hs-578T
EKVX = system: EKVX
A549 = system: A549
NCI-H460 = system: NCI-H460
NCI/ADR-RES = system: NCI/ADR-RES
CCRF-CEM = system: CCRF-CEM
T47D = system: T47D
UACC-257 = system: UACC-257
NCI-H23 = system: NCI-H23
OVCAR-5 = system: OVCAR-5
HL-60 = system: HL-60
CAKI-1 = system: CAKI-1
HCT-116 = system: HCT-116

With `COc1cccc(/C=C\c2ccnc3ccccc23)c1` the GI50 (SNB-75) was > 10 µM (inactive), the GI50 (RXF 393) was > 10 µM (inactive) and the GI50 (COLO 205) was > 10 µM (inactive). For the same compound, the GI50 (K562) was > 10 µM (inactive), the GI50 (MDA-N) was > 10 µM (inactive) and the GI50 (BT-549) was > 10 µM (inactive). For the same compound, the GI50 (RPMI-8226) was > 10 µM (inactive), the GI50 (MDA-MB-231) was > 10 µM (inactive) and the GI50 (KM12) was > 10 µM (inactive). The GI50 (MOLT-4) was > 10 µM (inactive), the GI50 (SF-539) was > 10 µM (inactive) and the GI50 (OVCAR-4) was > 10 µM (inactive). For the same compound, the GI50 (NCI-H226) was > 10 µM (inactive), the GI50 (LOX IMVI) was 9.51 µM (inactive) and the GI50 (ACHN) was > 10 µM (inactive). For the same compound, the GI50 (HT-29) was > 10 µM (inactive), the GI50 (SNB-19) was > 10 µM (inactive) and the GI50 (UO-31) was > 10 µM (inactive). The GI50 (HCC 2998) was > 10 µM (inactive), the GI50 (SF-268) was > 10 µM (inactive) and the GI50 (SN12C) was > 10 µM (inactive). The GI50 (MCF7) was > 10 µM (inactive), the GI50 (HOP-62) was > 10 µM (inactive) and the GI50 (U-251) was > 10 µM (inactive). For the same compound, the GI50 (TK-10) was > 10 µM (inactive), the GI50 (SK-OV-3) was > 10 µM (inactive) and the GI50 (HOP-92) was > 10 µM (inactive). For the same compound, the GI50 (IGROV-1) was > 10 µM (inactive), the GI50 (UACC-62) was > 10 µM (inactive) and the GI50 (MDA-MB-435) was > 10 µM (inactive). For the same compound, the GI50 (SK-MEL-5) was > 10 µM (inactive), the GI50 (HCT-15) was over 10 µM and the GI50 (SW-620) was > 10 µM (inactive). The GI50 (OVCAR-3) was > 10 µM (inactive), the GI50 (OVCAR-8) was > 10 µM (inactive) and the GI50 (NCI-H522) was > 10 µM (inactive). The GI50 (M14) was > 10 µM (inactive), the GI50 (A498) was > 10 µM (inactive) and the GI50 (Malme-3M) was > 10 µM (inactive). For the same compound, the GI50 (PC-3) was > 10 µM (inactive), the GI50 (SF-295) was > 10 µM (inactive) and the GI50 (DU-145) was > 10 µM (inactive). The GI50 (SK-MEL-2) was > 10 µM (inactive), the GI50 (SK-MEL-28) was > 10 µM (inactive) and the GI50 (786-0) was > 10 µM (inactive). The GI50 (Hs-578T) was > 10 µM (inactive), the GI50 (EKVX) was > 10 µM (inactive) and the GI50 (A549) was > 10 µM (inactive). The GI50 (NCI-H460) was > 10 µM (inactive), the GI50 (NCI/ADR-RES) was > 10 µM (inactive) and the GI50 (CCRF-CEM) was > 10 µM (inactive). For the same compound, the GI50 (T47D) was > 10 µM (inactive), the GI50 (UACC-257) was > 10 µM (inactive) and the GI50 (NCI-H23) was > 10 µM (inactive). The GI50 (OVCAR-5) was > 10 µM (inactive), the GI50 (HL-60) was > 10 µM (inactive) and the GI50 (CAKI-1) was > 10 µM (inactive). The GI50 (HCT-116) was > 10 µM (inactive).
